Like-named read-outs stand apart in the source and are kept apart here. Where a SMILES comes first, the peptide text is derived from it. [ ]: non-standard residue; d: D form. The star is where a group is joined. Sta = CC(C)C[C@H](N)[C@@H](O)CC(=O)O; Isovaleryl = CC(C)CC(=O)*

In assay [1] the target is ruLAP2 (Trichophyton rubrum, UniProt Q5QHG6). In kind it is biochemical. As to conditions: for effect of inhibitor on ruLAP2 activity: Leu-AMC 5 mM, inhibitor concentrations. The protocol: (§1) Inhibitors and metallic cations were pre-incubated with the enzymes for 15 min at 37° C. Then, Leu-AMC at a 5 mM final concentration was added. After further incubation for 60 min, enzyme activity was measured as described above. The inhibitors and their concentrations tested purified LAPs were: 500 μM amastatin (Bachem), 40 μM benzamidine (Sigma), 500 μM bestatin (Bachem), 5 mM/l mM EDTA (Sigma). 100 μM E-64 (L-trans-epoxysuccinyl-leu-4-guanidinobutylamide) (Bachem), 100 μM leupeptin (Sigma), 5 mM/1 mM ortho-phenanthroline (Sigma), 500 μM p-chloromercuribenzoic acid (Sigma), 100 μM pepstatin A (Sigma), 40 μM PMSF (Sigma), 20 μM TLCK (Roche Diagnostics), and 20 μM TPCK (Roche Diagnostics).
ruLAP2, sequence (Q5QHG6 22-495): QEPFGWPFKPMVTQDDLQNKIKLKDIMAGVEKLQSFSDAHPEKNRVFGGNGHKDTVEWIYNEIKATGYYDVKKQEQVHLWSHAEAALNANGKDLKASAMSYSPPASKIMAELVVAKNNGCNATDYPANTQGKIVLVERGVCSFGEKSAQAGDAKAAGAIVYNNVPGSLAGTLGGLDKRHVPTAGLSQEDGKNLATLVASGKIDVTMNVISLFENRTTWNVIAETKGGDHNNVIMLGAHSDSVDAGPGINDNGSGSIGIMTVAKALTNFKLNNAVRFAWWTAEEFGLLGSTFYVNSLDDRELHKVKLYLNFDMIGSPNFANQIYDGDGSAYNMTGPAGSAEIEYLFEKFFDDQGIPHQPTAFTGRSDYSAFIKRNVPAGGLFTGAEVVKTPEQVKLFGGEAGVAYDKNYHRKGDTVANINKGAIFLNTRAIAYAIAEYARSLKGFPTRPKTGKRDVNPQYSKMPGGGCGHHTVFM

Assay [2] deals with fuLAP2. In kind it is biochemical, Aspergillus fumigatus. The following applies: for fuLAP2 hydrolytic activity, percentage of control without any cation / fuLAP2 hydrolytic activity, percentage of control without inhibitor: Leu-MCA substrate; for fuLAP2 hydrolytic activity, percentage of control without inhibitor: inhibitor 100 μM. On the procedure:
as §1

Assay [3] deals with ruLAP1 (Trichophyton rubrum, UniProt Q5QHG5). In kind it is biochemical. The following applies: for effect of inhibitor on ruLAP1 activity: Leu-AMC 5 mM, inhibitor concentrations, pepstatin 0.1 mM. The protocol:
as §1

Assay [4] has as its target fuLAP1 (Aspergillus fumigatus, UniProt Q5VJG6). Format: biochemical. On the procedure: as §1
Assay [5] has as its target T1, pkLAP (microsomal LAP from porcine kidney) (Sus scrofa, UniProt P15145).
T1 construct: purchased Sigma; host or cells: porcine kidney
T1 sequence (P15145 1-963): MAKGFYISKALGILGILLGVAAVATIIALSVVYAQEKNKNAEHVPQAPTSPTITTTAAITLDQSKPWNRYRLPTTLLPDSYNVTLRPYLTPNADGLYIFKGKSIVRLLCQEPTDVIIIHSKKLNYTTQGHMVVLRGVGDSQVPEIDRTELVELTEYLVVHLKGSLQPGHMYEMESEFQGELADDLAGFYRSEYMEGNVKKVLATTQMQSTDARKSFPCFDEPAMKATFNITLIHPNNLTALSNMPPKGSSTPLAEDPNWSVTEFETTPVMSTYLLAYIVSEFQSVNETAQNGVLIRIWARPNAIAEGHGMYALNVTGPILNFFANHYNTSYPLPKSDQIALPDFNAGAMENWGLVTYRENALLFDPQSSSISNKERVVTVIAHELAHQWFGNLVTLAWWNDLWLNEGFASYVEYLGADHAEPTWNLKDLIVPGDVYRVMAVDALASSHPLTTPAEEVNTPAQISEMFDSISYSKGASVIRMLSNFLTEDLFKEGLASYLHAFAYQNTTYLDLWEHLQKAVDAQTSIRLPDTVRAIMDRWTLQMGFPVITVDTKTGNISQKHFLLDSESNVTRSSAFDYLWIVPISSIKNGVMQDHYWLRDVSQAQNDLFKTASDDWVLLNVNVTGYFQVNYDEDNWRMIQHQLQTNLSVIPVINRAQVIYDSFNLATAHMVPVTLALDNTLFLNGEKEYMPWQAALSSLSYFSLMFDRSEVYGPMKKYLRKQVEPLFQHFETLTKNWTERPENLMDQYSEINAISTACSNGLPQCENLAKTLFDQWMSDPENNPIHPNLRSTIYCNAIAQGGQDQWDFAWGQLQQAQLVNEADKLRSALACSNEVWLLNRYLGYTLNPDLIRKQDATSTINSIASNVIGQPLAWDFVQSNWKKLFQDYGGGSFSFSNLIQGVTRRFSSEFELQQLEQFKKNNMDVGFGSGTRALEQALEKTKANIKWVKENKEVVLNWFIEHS
Description: Effect of chemical reagents (inhibitors, metallic cations) on LAP activity with Leu-AMC. Format: biochemical. The protocol:
as §1

Where [6] appears, read: cation salt 0.5 mM, Leu-MCA substrate.
Setting [7] is: cation salt 1 mM, Leu-MCA substrate.
Where [8] appears, read: inhibitor 100 μM, Leu-MCA substrate.

fuLAP1, sequence (Q5VJG6 15-388, looked up, natural form): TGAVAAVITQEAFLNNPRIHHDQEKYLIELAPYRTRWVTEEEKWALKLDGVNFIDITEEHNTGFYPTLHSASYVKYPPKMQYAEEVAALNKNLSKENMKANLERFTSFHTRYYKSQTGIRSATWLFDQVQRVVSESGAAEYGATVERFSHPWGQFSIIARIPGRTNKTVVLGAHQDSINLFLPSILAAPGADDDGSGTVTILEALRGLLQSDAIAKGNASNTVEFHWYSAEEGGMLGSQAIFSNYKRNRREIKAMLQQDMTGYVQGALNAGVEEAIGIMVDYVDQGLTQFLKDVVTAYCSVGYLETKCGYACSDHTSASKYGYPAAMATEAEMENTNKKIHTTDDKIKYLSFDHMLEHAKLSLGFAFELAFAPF
ruLAP1, sequence (Q5QHG5 19-373): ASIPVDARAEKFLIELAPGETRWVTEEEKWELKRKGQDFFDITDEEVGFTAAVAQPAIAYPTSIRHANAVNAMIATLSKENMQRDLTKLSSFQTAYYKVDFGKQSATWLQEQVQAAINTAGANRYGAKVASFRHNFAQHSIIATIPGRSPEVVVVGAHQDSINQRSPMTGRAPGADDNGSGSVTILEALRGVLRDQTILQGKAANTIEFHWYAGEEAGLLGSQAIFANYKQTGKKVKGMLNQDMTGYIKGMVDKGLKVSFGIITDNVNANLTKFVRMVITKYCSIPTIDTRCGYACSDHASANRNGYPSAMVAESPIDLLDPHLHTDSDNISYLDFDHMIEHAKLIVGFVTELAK

Turning to `CC(C)C[C@H](NC(=O)[C@H]1O[C@@H]1C(=O)O)C(=O)NCCCCN=C(N)N` (relative stereo) [E64, L-trans-epoxysuccinyl-leu-4-guanidinobutylamide], the “effect of inhibitor on ruLAP2 activity” value in assay [1] is “blunted the activity”.

As to `[Ca+2].[Cl-].[Cl-]` [CaCl2], the “fuLAP2 hydrolytic activity, percentage of control without any cation” value in assay [2] (cation salt 0.5 mM) was determined as 110.0%; in assay [2] (cation salt 1 mM), 165.4%. Further, the “ruLAP2 hydrolytic activity, percentage of control without any cation” value in assay [1] (setting [6]) was determined as 126.6%; in assay [1] (setting [7]), 141.9%. The “ruLAP1 hydrolytic activity, percentage of control without any cation” value in assay [3] (setting [6]) stood at 151.7%; in assay [3] (setting [7]), 175.6%. In addition, the entries for the “fuLAP1 hydrolytic activity, percentage of control without any cation” value in assay [4] (setting [6]) and in assay [4] (setting [7]) were 54.9% and 43.3%, respectively. Also, the “pkLAP hydrolytic activity, percentage of control without any cation” value in assay [5] (setting [6]) is on record as 177.4%; in assay [5] (setting [7]), 161.8%.

As to `[Ca+2]` [Ca^++], the “effect of divalent cation on fuLAP2 activity” value in assay [2] (Leu-AMC substrate) is recorded as “activated”. In assay [4] (Leu-AMC substrate), the “effect of divalent cation on fuLAP1 activity” value is recorded as “inhibited”.

In the case of `[Cl][Cu][Cl]` [Cu^++, CuCl2], the “fuLAP2 hydrolytic activity, percentage of control without any cation” value in assay [2] (cation salt 0.5 mM) is listed as 68.9%; in assay [2] (cation salt 1 mM), 73.6%. The entries for the “ruLAP2 hydrolytic activity, percentage of control without any cation” value in assay [1] (setting [6]) and in assay [1] (setting [7]) were 50.9% and 34.7%, respectively. Also, the “fuLAP1 hydrolytic activity, percentage of control without any cation” value is 25.8% in assay [4] (setting [6]) and 17.0% in assay [4] (setting [7]). Also, the “effect of divalent cation on pkLAP activity” value in assay [5] (Leu-AMC substrate) is recorded as “highly activated”. Further, the “pkLAP hydrolytic activity, percentage of control without any cation” value came to 1422.0% in assay [5] (setting [6]) and 1092.4% in assay [5] (setting [7]).

With `CC(C)C[C@H](NC(=O)[C@H]1O[C@@H]1C(=O)O)C(=O)NCCCCN=C(N)N` [E 64], the “fuLAP2 hydrolytic activity, percentage of control without inhibitor” value in assay [2] is on record as 71%. Moreover, the “ruLAP2 hydrolytic activity, percentage of control without inhibitor” value in assay [1] (setting [8]) is listed as 34%. For the same compound, the “ruLAP1 hydrolytic activity, percentage of control without inhibitor” value in assay [3] (setting [8]) turned out to be 103%. For the same compound, the “fuLAP1 hydrolytic activity, percentage of control without inhibitor” value in assay [4] (setting [8]) came out at 190%. Moreover, the “pkLAP hydrolytic activity, percentage of control without inhibitor” value in assay [5] (setting [8]) is reported as 93%.

With `O=C(O)CN(CCN(CC(=O)O)CC(=O)O)CC(=O)O` [EDTA], the “effect of inhibitor on ruLAP2 activity” value in assay [1] was “more sensitive”. Besides, the “effect of inhibitor on ruLAP1 activity” value in assay [3] is on record as “more sensitive”.

As to `[Cl-].[Cl-].[Mg+2]` [MgCl2], the “fuLAP2 hydrolytic activity, percentage of control without any cation” value in assay [2] (cation salt 0.5 mM) turned out to be 97.6%; in assay [2] (cation salt 1 mM), 108.0%. Also, the “ruLAP2 hydrolytic activity, percentage of control without any cation” value in assay [1] (setting [6]) is on record as 121.2%; in assay [1] (setting [7]) it was 110.2%. The “ruLAP1 hydrolytic activity, percentage of control without any cation” value in assay [3] (setting [6]) came out at 129.9%; in assay [3] (setting [7]), 132.6%. In addition, the “fuLAP1 hydrolytic activity, percentage of control without any cation” value is listed as 68.5% in assay [4] (setting [6]) and 72.6% in assay [4] (setting [7]). In addition, the entries for the “pkLAP hydrolytic activity, percentage of control without any cation” value in assay [5] (setting [6]) and in assay [5] (setting [7]) were 130.1% and 146.1%, respectively.

`CC(C)CC(=O)N[C@H](C(=O)N[C@H](C(=O)N[C@@H](CC(C)C)[C@@H](O)CC(=O)N[C@@H](C)C(=O)N[C@@H](CC(C)C)[C@@H](O)CC(=O)O)C(C)C)C(C)C` [pepstatin, pepstatin A] (Isovaleryl-VV[Sta]A[Sta]-OH): in assay [2], the “fuLAP2 hydrolytic activity, percentage of control without inhibitor” value stood at 73%. Further, the “effect of inhibitor on ruLAP1 activity” value in assay [3] is listed as “some sensitivity”. Also, the “effect of inhibitor on fuLAP1 activity” value in assay [4] (Leu-AMC 5 mM, inhibitor concentrations, pepstatin 0.1 mM) is “some sensitivity”.

These data come from US7943340B2, “Fungal dipeptidyl peptidase IV (DPPIV) enzyme for reagent use” (priority 2003, dated 2011).
